Experimental findings from PubChem BioAssay AID1745844 (Carcinogenic Potency Database (CPDB), 2022) are described below.

As a reminder, the TD50 is the 50% point of the dose-response relation for the toxic effect studied.

The test system of this data set is rodent lifetime carcinogenesis bioassay, tumor incidence TD50. Put plainly: chronic cancer bioassays in animals – CPDB, compiled studies (AID 1745844).

The structures appear in SMILES notation. Activity calls are given as the source filed them. The rule behind the calls is not given here.

`Cc1ccc(NC(N)=O)cc1`: the carcinogen call is, setting by setting: (mouse, strain C57BL/6, females, in feed, site: liver, lesion: hepatocellular carcinoma, dosed 52 weeks, study length 69 weeks) “negative (inactive)”; (mouse, strain C57BL/6, females, in feed, site: lung, lesion: alveolar/bronchiolar adenoma, dosed 52 weeks, study length 69 weeks) “negative (inactive)”; (mouse, strain C57BL/6, males, in feed, site: lung, lesion: alveolar/bronchiolar adenoma, dosed 52 weeks, study length 69 weeks) “negative (inactive)”; (rat, strain Fischer 344, females, in feed, site: liver, lesion: one or several types, types not named, dosed 52 weeks, study length 69 weeks) “negative (inactive)”. Further, the TD50 (mouse, strain C57BL/6, males, in feed, site: all sites, lesion: malignant lymphoma, histiocytic type, dosed 52 weeks, study length 69 weeks) came out at 265 mg/kg/day; the TD50 (mouse, strain C57BL/6, males, in feed, site: all sites, lesion: malignant lymphoma, dosed 52 weeks, study length 69 weeks) is 206 mg/kg/day; the TD50 (mouse, strain C57BL/6, males, in feed, site: liver, lesion: hepatocellular carcinoma, dosed 52 weeks, study length 69 weeks) is 722 mg/kg/day (inactive); the TD50 (mouse, strain C57BL/6, males, in feed, site: mesenteric lymph node, lesion: malignant lymphoma, histiocytic type, dosed 52 weeks, study length 69 weeks) stood at 626 mg/kg/day; the TD50 (mouse, strain C57BL/6, males, in feed, site: multiple organs, lesion: malignant lymphoma, histiocytic type, dosed 52 weeks, study length 69 weeks) came to 441 mg/kg/day; the TD50 (rat, strain Fischer 344, males, in feed, site: liver, lesion: hepatocellular carcinoma, dosed 52 weeks, study length 69 weeks) is 699 mg/kg/day (inactive).

`CCCCC/C=C\C/C=C\CCCCCCCC(=O)O[C@H](COC(=O)CCCCCCCCCCCCCCC)COP(=O)([O-])OCC[N+](C)(C)C`: where the note is “rat, strain Wistar, females, in feed, site: liver, lesion: nodular hyperplasia, dosed 104 weeks, study length 104 weeks”, the carcinogen call is “negative (inactive)”. Further, the TD50 (rat, strain Wistar, males, in feed, site: liver, lesion: cholangioma, dosed 104 weeks, study length 104 weeks) is 42200 mg/kg/day (inactive).

In the case of `CN(N=O)c1ccc(F)cc1`, the TD50 was 0.255 mg/kg/day (rat, strain Fischer 344, males, in drinking water, site: esophagus, lesion: several types, types named in the paper, dosed 50 weeks, study length 114 weeks) and 10.3 mg/kg/day (rat, strain Fischer 344, males, in drinking water, site: liver, lesion: hyperplastic nodule, dosed 50 weeks, study length 114 weeks).

With `CCOC(=O)C1OC1(C)c1ccccc1` (centres undefined), the TD50 runs as follows: (rat, strain Wistar, females, in feed, site: any site (literature study), lesion: benign tumor, dosed 104 weeks, study length 104 weeks) 253 mg/kg/day (inactive); (rat, strain Wistar, females, in feed, site: any site (literature study), lesion: malignant tumor, dosed 104 weeks, study length 104 weeks) 2230 mg/kg/day (inactive); (rat, strain Wistar, females, in feed, site: liver, lesion: hemangioendothelioma, dosed 104 weeks, study length 104 weeks) 9360 mg/kg/day (inactive); (rat, strain Wistar, females, in feed, site: pituitary gland, lesion: adenoma, dosed 104 weeks, study length 104 weeks) 331 mg/kg/day (inactive); (rat, strain Wistar, males, in feed, site: any site (literature study), lesion: benign tumor, dosed 104 weeks, study length 104 weeks) 1150 mg/kg/day (inactive); (rat, strain Wistar, males, in feed, site: any site (literature study), lesion: malignant tumor, dosed 104 weeks, study length 104 weeks) 4110 mg/kg/day (inactive). Where the note is “rat, strain Wistar, males, in feed, site: testis, lesion: interstitial-cell tumor, dosed 104 weeks, study length 104 weeks”, the TD50 is 1150 mg/kg/day (inactive). For the setting “rat, strain Wistar, males, in feed, site: liver, lesion: one or several types, types not named, dosed 104 weeks, study length 104 weeks”, the carcinogen call was “negative (inactive)”.

As for `Brc1cc(Br)c(-c2cc(Br)c(Br)cc2Br)cc1Br`, the TD50 is, setting by setting: (mouse, strain B6C3F1, females, by gavage, site: any site (literature study), lesion: several types, types named in the paper, dosed 26 weeks, study length 131 weeks) 0.338 mg/kg/day; (mouse, strain B6C3F1, females, by gavage, site: liver, lesion: hepatocellular adenoma + hepatocellular carcinoma + neoplastic nodule, dosed 26 weeks, study length 131 weeks) 0.402 mg/kg/day; (mouse, strain B6C3F1, females, by gavage, site: liver, lesion: hepatocellular carcinoma, dosed 26 weeks, study length 131 weeks) 0.534 mg/kg/day; (mouse, strain B6C3F1, females, by gavage, site: lung, lesion: alveolar/bronchiolar adenoma + alveolar/bronchiolar carcinoma, dosed 26 weeks, study length 131 weeks) 0.915 mg/kg/day; (mouse, strain B6C3F1, females, in feed, site: any site (literature study), lesion: several types, types named in the paper, dosed 105 weeks, study length 105 weeks) 0.362 mg/kg/day; (mouse, strain B6C3F1, females, in feed, site: liver, lesion: hepatocellular adenoma + hepatoblastoma + hepatocellular carcinoma, dosed 105 weeks, study length 105 weeks) 0.307 mg/kg/day. In addition, the TD50 (mouse, strain B6C3F1, females, in feed, site: liver, lesion: hepatocellular adenoma + hepatocellular carcinoma, dosed 105 weeks, study length 105 weeks) was 0.307 mg/kg/day; the TD50 (mouse, strain B6C3F1, females, in feed, site: liver, lesion: hepatocellular adenoma, dosed 105 weeks, study length 105 weeks) was 0.367 mg/kg/day; the TD50 (mouse, strain B6C3F1, females, in feed, site: liver, lesion: hepatocellular carcinoma, dosed 105 weeks, study length 105 weeks) was 0.588 mg/kg/day; the TD50 (mouse, strain B6C3F1, females, in feed, site: lung, lesion: alveolar/bronchiolar adenoma + alveolar/bronchiolar carcinoma, dosed 105 weeks, study length 105 weeks) was determined as 19.1 mg/kg/day; the TD50 (mouse, strain B6C3F1, males, by gavage, site: any site (literature study), lesion: several types, types named in the paper, dosed 26 weeks, study length 131 weeks) worked out at 0.418 mg/kg/day; the TD50 (mouse, strain B6C3F1, males, by gavage, site: liver, lesion: hepatocellular adenoma + hepatocellular carcinoma + neoplastic nodule, dosed 26 weeks, study length 131 weeks) was found to be 0.285 mg/kg/day. Besides, the TD50 runs as follows: (mouse, strain B6C3F1, males, by gavage, site: liver, lesion: hepatocellular carcinoma, dosed 26 weeks, study length 131 weeks) 0.381 mg/kg/day; (mouse, strain B6C3F1, males, in feed, site: any site (literature study), lesion: several types, types named in the paper, dosed 105 weeks, study length 105 weeks) 0.349 mg/kg/day; (mouse, strain B6C3F1, males, in feed, site: liver, lesion: hepatocellular adenoma + hepatoblastoma + hepatocellular carcinoma, dosed 105 weeks, study length 105 weeks) 0.262 mg/kg/day; (mouse, strain B6C3F1, males, in feed, site: liver, lesion: hepatocellular adenoma + hepatocellular carcinoma, dosed 105 weeks, study length 105 weeks) 0.262 mg/kg/day; (mouse, strain B6C3F1, males, in feed, site: liver, lesion: hepatocellular adenoma, dosed 105 weeks, study length 105 weeks) 0.233 mg/kg/day; (mouse, strain B6C3F1, males, in feed, site: liver, lesion: hepatocellular carcinoma, dosed 105 weeks, study length 105 weeks) 0.54 mg/kg/day. Besides, the TD50 (mouse, strain B6C3F1, males, in feed, site: lung, lesion: alveolar/bronchiolar adenoma + alveolar/bronchiolar carcinoma, dosed 105 weeks, study length 105 weeks) was determined as 54.9 mg/kg/day; the TD50 (rat, strain Fischer 344, females, by gavage, site: any site (literature study), lesion: several types, types named in the paper, dosed 25 weeks, study length 124 weeks) amounted to 0.365 mg/kg/day; the TD50 (rat, strain Fischer 344, females, by gavage, site: liver, lesion: cholangiocarcinoma + hepatocellular carcinoma + neoplastic nodule, dosed 25 weeks, study length 124 weeks) is 0.596 mg/kg/day; the TD50 (rat, strain Fischer 344, females, by gavage, site: liver, lesion: cholangiocarcinoma, dosed 25 weeks, study length 124 weeks) is 2.1 mg/kg/day; the TD50 (rat, strain Fischer 344, females, by gavage, site: liver, lesion: hepatocellular adenoma + hepatocellular carcinoma + neoplastic nodule, dosed 25 weeks, study length 124 weeks) was found to be 0.645 mg/kg/day; the TD50 (rat, strain Fischer 344, females, by gavage, site: liver, lesion: hepatocellular carcinoma, dosed 25 weeks, study length 124 weeks) is 1.65 mg/kg/day. The TD50 is 1.1 mg/kg/day (rat, strain Fischer 344, females, by gavage, site: liver, lesion: neoplastic nodule, dosed 25 weeks, study length 124 weeks); 2.38 mg/kg/day (rat, strain Fischer 344, females, in feed, site: any site (literature study), lesion: several types, types named in the paper, dosed 104 weeks, study length 104 weeks); 0.656 mg/kg/day (rat, strain Fischer 344, females, in feed, site: liver, lesion: hepatocellular adenoma + hepatoblastoma + hepatocellular carcinoma, dosed 104 weeks, study length 104 weeks); 0.656 mg/kg/day (rat, strain Fischer 344, females, in feed, site: liver, lesion: hepatocellular adenoma + hepatocellular carcinoma, dosed 104 weeks, study length 104 weeks); 0.7 mg/kg/day (rat, strain Fischer 344, females, in feed, site: liver, lesion: hepatocellular adenoma, dosed 104 weeks, study length 104 weeks); 8.22 mg/kg/day (rat, strain Fischer 344, females, in feed, site: liver, lesion: hepatocellular carcinoma, dosed 104 weeks, study length 104 weeks). The TD50 reads like this: (rat, strain Fischer 344, females, in feed, site: mammary gland, lesion: fibroadenoma, dosed 104 weeks, study length 104 weeks) 1.59 mg/kg/day; (rat, strain Fischer 344, males, by gavage, site: any site (literature study), lesion: several types, types named in the paper, dosed 25 weeks, study length 118 weeks) 0.0645 mg/kg/day; (rat, strain Fischer 344, males, by gavage, site: liver, lesion: cholangiocarcinoma + hepatocellular carcinoma + neoplastic nodule, dosed 25 weeks, study length 118 weeks) 0.148 mg/kg/day; (rat, strain Fischer 344, males, by gavage, site: liver, lesion: cholangiocarcinoma, dosed 25 weeks, study length 118 weeks) 14.4 mg/kg/day; (rat, strain Fischer 344, males, by gavage, site: liver, lesion: hepatocellular adenoma + hepatocellular carcinoma + neoplastic nodule, dosed 25 weeks, study length 118 weeks) 0.151 mg/kg/day; (rat, strain Fischer 344, males, by gavage, site: liver, lesion: hepatocellular carcinoma, dosed 25 weeks, study length 118 weeks) 1.3 mg/kg/day. The TD50 (rat, strain Fischer 344, males, by gavage, site: liver, lesion: neoplastic nodule, dosed 25 weeks, study length 118 weeks) was 0.168 mg/kg/day; the TD50 (rat, strain Fischer 344, males, in feed, site: any site (literature study), lesion: several types, types named in the paper, dosed 104 weeks, study length 104 weeks) worked out at 1.56 mg/kg/day; the TD50 (rat, strain Fischer 344, males, in feed, site: liver, lesion: hepatocellular adenoma + hepatoblastoma + hepatocellular carcinoma, dosed 104 weeks, study length 104 weeks) worked out at 0.408 mg/kg/day; the TD50 (rat, strain Fischer 344, males, in feed, site: liver, lesion: hepatocellular adenoma + hepatocellular carcinoma, dosed 104 weeks, study length 104 weeks) was 0.408 mg/kg/day; the TD50 (rat, strain Fischer 344, males, in feed, site: liver, lesion: hepatocellular adenoma, dosed 104 weeks, study length 104 weeks) was 0.461 mg/kg/day; the TD50 (rat, strain Fischer 344, males, in feed, site: liver, lesion: hepatocellular carcinoma, dosed 104 weeks, study length 104 weeks) was 1.19 mg/kg/day.
